Data from ChEMBL document CHEMBL1201862, “PubChem BioAssay data set” (2004).
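96-well plates; 48 h exposure; 5 concentrations. Endpoints by linear interpolation between flanking doses. Not reached: highest tested concentration assigned. Abbreviation: GI50, concentration required for 50% inhibition of growth.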 Activity calls are given as the source filed them. Cut-off read from the data, not from the text of the source: active = GI50 up to about 1.1 µM and inactive = higher.

Key:
Assay in all cases: NCI anticancer screen, dose series, 48 h
[1] = system: 786-0
[2] = system: A498
[3] = system: A549
[4] = system: ACHN
[5] = system: BT-549
[6] = system: CAKI-1
[7] = system: CCRF-CEM
[8] = system: COLO 205
[9] = system: DLD-1
[10] = system: DMS-114
[11] = system: DMS-273
[12] = system: DU-145
[13] = system: EKVX
[14] = system: HCC 2998
[15] = system: HCT-116
[16] = system: HCT-15
[17] = system: HL-60
[18] = system: HOP-18
[19] = system: HOP-62
[20] = system: HOP-92
[21] = system: HT-29
[22] = system: Hs-578T
[23] = system: IGROV-1
[24] = system: K562
[25] = system: KM-20L2
[26] = system: KM12
[27] = system: LOX IMVI
[28] = system: LXFL 529
[29] = system: M14
[30] = system: M19-MEL
[31] = system: MCF7
[32] = system: MDA-MB-435
[33] = system: MOLT-4
[34] = system: Malme-3M
[35] = system: NCI-H226
[36] = system: NCI-H23
[37] = system: NCI-H460
[38] = system: NCI-H522
[39] = system: NCI/ADR-RES
[40] = system: OVCAR-3
[41] = system: OVCAR-4
[42] = system: OVCAR-5
[43] = system: OVCAR-8
[44] = system: PC-3
[45] = system: RPMI-8226
[46] = system: RXF 393
[47] = system: RXF 631
[48] = system: SF-268
[49] = system: SF-295
[50] = system: SF-539
[51] = system: SK-MEL-28
[52] = system: SK-MEL-2
[53] = system: SK-MEL-5
[54] = system: SK-OV-3
[55] = system: SN12C
[56] = system: SNB-19
[57] = system: SNB-75
[58] = system: SNB-78
[59] = system: SR
[60] = system: SW-620
[61] = system: TK-10
[62] = system: U-251
[63] = system: UACC-257
[64] = system: UACC-62
[65] = system: UO-31
[66] = system: XF498

Structure (SMILES): C/C(=N\NC(=S)N1CC2CCC(CC2)C1)c1nccs1
- GI50 [1]: 0.25 µM (active)
- GI50 [2]: 1.8 µM (inactive)
- GI50 [3]: 0.19 µM (active)
- GI50 [4]: 0.3 µM (active)
- GI50 [5]: 1.07 µM (active)
- GI50 [6]: 0.634 µM (active)
- GI50 [7]: < 0.01 µM (active)
- GI50 [8]: 0.0145 µM (active)
- GI50 [9]: 0.0423 µM (active)
- GI50 [10]: < 0.0148 µM (active)
- GI50 [11]: 0.127 µM (active)
- GI50 [12]: 0.255 µM (active)
- GI50 [13]: 0.0789 µM (active)
- GI50 [14]: 0.268 µM (active)
- GI50 [15]: < 0.0187 µM (active)
- GI50 [16]: 0.0516 µM
- GI50 [17]: < 0.01 µM (active)
- GI50 [18]: 0.327 µM (active)
- GI50 [19]: 0.395 µM (active)
- GI50 [20]: 0.646 µM (active)
- GI50 [21]: 0.07 µM (active)
- GI50 [22]: 6.1 µM (inactive)
- GI50 [23]: 0.158 µM (active)
- GI50 [24]: < 0.01 µM (active)
- GI50 [25]: < 0.01 µM (active)
- GI50 [26]: 0.133 µM (active)
- GI50 [27]: 0.271 µM (active)
- GI50 [28]: 0.0201 µM (active)
- GI50 [29]: 0.249 µM (active)
- GI50 [30]: 0.288 µM (active)
- GI50 [31]: < 0.0258 µM (active)
- GI50 [32]: 0.413 µM (active)
- GI50 [33]: < 0.0196 µM (active)
- GI50 [34]: 0.435 µM (active)
- GI50 [35]: 0.479 µM (active)
- GI50 [36]: 0.434 µM (active)
- GI50 [37]: 0.0483 µM (active)
- GI50 [38]: 0.0471 µM (active)
- GI50 [39]: < 0.0295 µM (active)
- GI50 [40]: 0.0415 µM (active)
- GI50 [41]: 0.261 µM (active)
- GI50 [42]: 0.143 µM (active)
- GI50 [43]: 0.114 µM (active)
- GI50 [44]: 0.228 µM (active)
- GI50 [45]: 0.0347 µM (active)
- GI50 [46]: 0.336 µM (active)
- GI50 [47]: 0.518 µM (active)
- GI50 [48]: 0.294 µM (active)
- GI50 [49]: 0.296 µM (active)
- GI50 [50]: 0.307 µM (active)
- GI50 [51]: 1.1 µM (active)
- GI50 [52]: 0.679 µM (active)
- GI50 [53]: 0.153 µM (active)
- GI50 [54]: 0.809 µM (active)
- GI50 [55]: 0.853 µM (active)
- GI50 [56]: 0.741 µM (active)
- GI50 [57]: 3.33 µM (inactive)
- GI50 [58]: 10.3 µM (inactive)
- GI50 [59]: 0.0716 µM (active)
- GI50 [60]: 0.11 µM (active)
- GI50 [61]: 0.975 µM (active)
- GI50 [62]: 0.185 µM (active)
- GI50 [63]: 0.113 µM (active)
- GI50 [64]: 0.132 µM (active)
- GI50 [65]: 0.129 µM (active)
- GI50 [66]: 2.3 µM (inactive)

Structure (SMILES): C#C[C@@H](CCCC)OC(=O)N[C@H](C)c1ccccc1
- GI50 [1]: 59.6 µM (inactive)
- GI50 [3]: 6.82 µM (inactive)
- GI50 [4]: 43.8 µM (inactive)
- GI50 [6]: 42.9 µM (inactive)
- GI50 [7]: 25.7 µM (inactive)
- GI50 [8]: 2.45 µM (inactive)
- GI50 [9]: 59.4 µM (inactive)
- GI50 [10]: 25.1 µM (inactive)
- GI50 [11]: 37.2 µM (inactive)
- GI50 [13]: 60.7 µM (inactive)
- GI50 [14]: 1.96 µM (inactive)
- GI50 [15]: 34.3 µM (inactive)
- GI50 [17]: 15.3 µM (inactive)
- GI50 [18]: > 100 µM (inactive)
- GI50 [19]: > 100 µM (inactive)
- GI50 [20]: 1.83 µM (inactive)
- GI50 [21]: 40.3 µM (inactive)
- GI50 [23]: 23 µM (inactive)
- GI50 [24]: 31.9 µM (inactive)
- GI50 [25]: 51.8 µM (inactive)
- GI50 [26]: 39.7 µM (inactive)
- GI50 [27]: 33.2 µM (inactive)
- GI50 [28]: 43.1 µM (inactive)
- GI50 [29]: 11.5 µM (inactive)
- GI50 [30]: 38.5 µM (inactive)
- GI50 [33]: 27.3 µM (inactive)
- GI50 [35]: 22.5 µM (inactive)
- GI50 [36]: 1.91 µM (inactive)
- GI50 [37]: 56.6 µM (inactive)
- GI50 [38]: 1.74 µM (inactive)
- GI50 [40]: 35.4 µM (inactive)
- GI50 [41]: 39.2 µM (inactive)
- GI50 [42]: 33 µM (inactive)
- GI50 [43]: 13.7 µM (inactive)
- GI50 [45]: 23 µM (inactive)
- GI50 [46]: 2.36 µM (inactive)
- GI50 [47]: 45.6 µM (inactive)
- GI50 [48]: 2.17 µM (inactive)
- GI50 [49]: 77.1 µM (inactive)
- GI50 [50]: 2.16 µM (inactive)
- GI50 [51]: > 100 µM (inactive)
- GI50 [52]: 23.4 µM (inactive)
- GI50 [53]: 20.6 µM (inactive)
- GI50 [54]: > 100 µM (inactive)
- GI50 [55]: 71.6 µM (inactive)
- GI50 [56]: 93.3 µM (inactive)
- GI50 [57]: 33.3 µM (inactive)
- GI50 [58]: 94.6 µM (inactive)
- GI50 [59]: 21.3 µM (inactive)
- GI50 [60]: 51.9 µM (inactive)
- GI50 [61]: 29.2 µM (inactive)
- GI50 [62]: 37.4 µM (inactive)
- GI50 [63]: 44.8 µM (inactive)
- GI50 [64]: 4.98 µM (inactive)
- GI50 [65]: 19 µM (inactive)
- GI50 [66]: 66.8 µM (inactive)

Structure (SMILES): CC(C)C(=O)NC(=S)Nc1ccc([N+](=O)[O-])cc1C#N
- GI50 [1]: > 100 µM (inactive)
- GI50 [2]: > 100 µM (inactive)
- GI50 [3]: > 100 µM (inactive)
- GI50 [4]: > 100 µM (inactive)
- GI50 [6]: 66.2 µM (inactive)
- GI50 [7]: > 100 µM (inactive)
- GI50 [8]: 16.8 µM (inactive)
- GI50 [9]: > 100 µM (inactive)
- GI50 [10]: > 100 µM (inactive)
- GI50 [11]: > 100 µM (inactive)
- GI50 [13]: 63.8 µM (inactive)
- GI50 [14]: > 100 µM (inactive)
- GI50 [15]: > 100 µM (inactive)
- GI50 [16]: > 100 µM
- GI50 [17]: > 100 µM (inactive)
- GI50 [18]: > 100 µM (inactive)
- GI50 [19]: > 100 µM (inactive)
- GI50 [20]: > 100 µM (inactive)
- GI50 [21]: > 100 µM (inactive)
- GI50 [23]: > 100 µM (inactive)
- GI50 [24]: > 100 µM (inactive)
- GI50 [25]: > 100 µM (inactive)
- GI50 [26]: > 100 µM (inactive)
- GI50 [27]: > 100 µM (inactive)
- GI50 [28]: > 100 µM (inactive)
- GI50 [29]: > 100 µM (inactive)
- GI50 [30]: > 100 µM (inactive)
- GI50 [33]: > 100 µM (inactive)
- GI50 [34]: > 100 µM (inactive)
- GI50 [35]: 25.1 µM (inactive)
- GI50 [36]: > 100 µM (inactive)
- GI50 [37]: > 100 µM (inactive)
- GI50 [38]: > 100 µM (inactive)
- GI50 [40]: > 100 µM (inactive)
- GI50 [41]: > 100 µM (inactive)
- GI50 [42]: > 100 µM (inactive)
- GI50 [43]: > 100 µM (inactive)
- GI50 [45]: > 100 µM (inactive)
- GI50 [46]: > 100 µM (inactive)
- GI50 [47]: 99.1 µM (inactive)
- GI50 [48]: > 100 µM (inactive)
- GI50 [49]: > 100 µM (inactive)
- GI50 [50]: > 100 µM (inactive)
- GI50 [51]: > 100 µM (inactive)
- GI50 [52]: > 100 µM (inactive)
- GI50 [53]: > 100 µM (inactive)
- GI50 [54]: > 100 µM (inactive)
- GI50 [55]: 22 µM (inactive)
- GI50 [56]: > 100 µM (inactive)
- GI50 [57]: 16.7 µM (inactive)
- GI50 [58]: > 100 µM (inactive)
- GI50 [59]: > 100 µM (inactive)
- GI50 [60]: > 100 µM (inactive)
- GI50 [61]: > 100 µM (inactive)
- GI50 [62]: > 100 µM (inactive)
- GI50 [63]: > 100 µM (inactive)
- GI50 [64]: > 100 µM (inactive)
- GI50 [65]: > 100 µM (inactive)
- GI50 [66]: > 100 µM (inactive)
